Key:
Format in all cases: biochemical
CAMK1 = CAMK1 (Homo sapiens, UniProt Q14012); assay: radiometric kinase panel, single dose […], duplicate; conditions: read-out: % remaining activity at 500 nM
Aurora B = target: T1, Aurora B (Homo sapiens, UniProt Q96GD4); assay: as above; conditions: read-out: % remaining activity at 500 nM
T1 construct: gene AURKB

[1] = target: T2, Tropomyosin receptor kinase A (TrkA) (Homo sapiens, UniProt P04629); assay: radiometric [γ-33P]ATP kinase assay, poly(Glu,Tyr) substrate, dose-response
T2 construct: gene NTRK1
T2 sequence (P04629 441-796 limits assumed): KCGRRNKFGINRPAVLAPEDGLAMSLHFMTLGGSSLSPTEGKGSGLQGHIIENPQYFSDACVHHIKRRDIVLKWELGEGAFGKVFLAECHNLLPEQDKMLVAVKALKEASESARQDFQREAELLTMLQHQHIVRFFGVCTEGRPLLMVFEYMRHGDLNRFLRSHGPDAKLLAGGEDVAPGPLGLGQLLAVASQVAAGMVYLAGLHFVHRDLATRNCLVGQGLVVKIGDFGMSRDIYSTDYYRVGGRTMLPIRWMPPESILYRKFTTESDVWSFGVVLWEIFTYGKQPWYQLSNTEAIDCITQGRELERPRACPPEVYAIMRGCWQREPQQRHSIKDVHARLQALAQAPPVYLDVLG

Sequence of CAMK1 (Q14012 whole entry): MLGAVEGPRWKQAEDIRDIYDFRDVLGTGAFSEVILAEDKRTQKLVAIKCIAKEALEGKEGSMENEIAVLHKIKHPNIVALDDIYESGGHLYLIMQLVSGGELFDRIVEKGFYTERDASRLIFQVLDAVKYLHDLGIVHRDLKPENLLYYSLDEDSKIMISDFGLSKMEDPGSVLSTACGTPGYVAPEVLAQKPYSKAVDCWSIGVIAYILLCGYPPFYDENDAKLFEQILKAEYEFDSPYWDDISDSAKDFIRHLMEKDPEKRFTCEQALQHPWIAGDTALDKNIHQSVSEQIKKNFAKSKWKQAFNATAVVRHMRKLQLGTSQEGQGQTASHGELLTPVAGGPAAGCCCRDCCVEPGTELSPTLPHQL
T1 sequence (Q96GD4 whole entry): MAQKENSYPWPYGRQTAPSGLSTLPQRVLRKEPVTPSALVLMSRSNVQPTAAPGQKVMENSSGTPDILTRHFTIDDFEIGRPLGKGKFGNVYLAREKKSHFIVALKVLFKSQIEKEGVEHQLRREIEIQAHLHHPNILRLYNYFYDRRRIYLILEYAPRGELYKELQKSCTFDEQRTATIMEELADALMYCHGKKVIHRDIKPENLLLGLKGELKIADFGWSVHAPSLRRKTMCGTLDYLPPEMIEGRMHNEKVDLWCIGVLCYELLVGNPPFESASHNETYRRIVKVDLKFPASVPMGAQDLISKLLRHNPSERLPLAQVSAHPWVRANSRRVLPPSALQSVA

Structure (SMILES)	remaining activity at 0.5 µM (CAMK1) [%]	remaining activity at 0.5 µM (Aurora B) [%]	IC50 [1] [µM]
CC(=O)OC(C)(C)/C=C/C(=O)[C@](C)(O)[C@H]1[C@H](O)C[C@@]2(C)[C@@H]3CC=C4[C@@H](C[C@H](O)C(=O)C4(C)C)[C@]3(C)C(=O)C[C@]12C [CuB, Cucurbitacin B]	12.9 ± 3.7	23.2 ± 2.8	0.178
CC(=O)OC(C)(C)/C=C/C(=O)[C@](C)(O)[C@H]1[C@H](O)C[C@@]2(C)[C@@H]3CC=C4[C@@H](C=C(O)C(=O)C4(C)C)[C@]3(C)C(=O)C[C@]12C [CuE, Cucurbitacin E]	–	–	0.549
CC(C)(O)/C=C/C(=O)[C@](C)(O)[C@H]1[C@H](O)C[C@@]2(C)[C@@H]3CC=C4[C@@H](C=C(O)C(=O)C4(C)C)[C@]3(C)C(=O)C[C@]12C [CuI, Cucurbitacin I]	–	–	0.959
